Experimental data from article PMC11270734 (ACS Omega, 2024).

How the values were obtained:
[1] = test system: chloroquine-sensitive P. falciparum (3D7 strain); type: cell-based; conditions: Plasmodium falciparum, 3D7, 48 h, read-out: MEAN IC50 ± SE
Cytotoxicity, MTT assay = type: cell-based; conditions: human, HEK-293 cells

| SMILES | IC50 [1] [nM] | CC50 at 72 h (Cytotoxicity, MTT assay) [µg/mL] |
| --- | --- | --- |
| CCCCC1(C)OOC2(CCN(C(=O)c3ccccc3)CC2)OO1 [3j] | 17.5 ± 1.24 | > 100 |
| CC(C)CC1(C)OOC2(CCN(C(=O)c3ccccc3)CC2)OO1 [3k] | 18.9 ± 2.12 | > 100 |
| CCC1(CC)OOC2(CCN(C(=O)c3ccccc3)CC2)OO1 [3m] | 17.5 ± 1.59 | > 100 |
| CCCCCC1(C)OOC2(CCN(C(=O)c3ccccc3)CC2)OO1 [3l] | 16.7 ± 1.93 | > 100 |
| C[C@@H]1CC[C@H]2[C@@H](C)C(=O)O[C@@H]3O[C@@]4(C)CC[C@@H]1[C@]32OO4 [artemisinin, reference compound] |  | > 100 |
| CCCC1(C)OOC2(CCN(C(=O)c3ccccc3)CC2)OO1 [3g] | 43.4 ± 2.38 | > 100 |
| CC1(c2ccccc2)OOC2(CCN(C(=O)c3ccccc3)CC2)OO1 [3p] | 16.3 ± 0.93 | > 100 |
| CCC1(C)OOC2(CCN(C(=O)c3ccccc3)CC2)OO1 [3f] | 42.5 ± 3.04 | > 100 |
| O=C(c1ccccc1)N1CCC2(CC1)OOC1(OO2)C2CC3CC(C2)CC1C3 [3d] | 7.28 ± 0.57 | > 100 |
| CC1(c2ccc(C#N)cc2)OOC2(CCN(C(=O)c3ccccc3)CC2)OO1 [3r] | 15.7 ± 0.78 | > 100 |
| CC1(C)OOC2(CCN(C(=O)c3ccccc3)CC2)OO1 [3e] | 29.9 ± 1.28 | > 100 |
| CC1(c2ccc(Cl)cc2)OOC2(CCN(C(=O)c3ccccc3)CC2)OO1 [3q] | 11.8 ± 0.8 | > 100 |
| O=C(c1ccccc1)N1CCC2(CC1)OOC1(CCCCCC1)OO2 [3c] | 21.9 ± 1.79 | > 100 |
| O=Cc1ccc(C(=O)N2CCC3(CC2)OOC2(OO3)C3CC4CC(C3)CC2C4)cc1 [3u] | 6.35 ± 0.55 | > 100 |
| O=C(c1ccccc1)N1CCC2(CC1)OOC1(CCCCC1)OO2 [3b] | 17.9 ± 1.96 | > 100 |
| CCCC1(CCC)OOC2(CCN(C(=O)c3ccccc3)CC2)OO1 [3o] | 17.3 ± 1.78 | > 100 |
| CC(C)C1(C)OOC2(CCN(C(=O)c3ccccc3)CC2)OO1 [3h] | 41.2 ± 2.33 | > 100 |
